Values after ≈ are worked out from the molar mass of the structure shown. Counter-ions that a name gives are not always drawn. Like-named read-outs stand apart in the source and are kept apart here.
Tests used:
[1] = tested on: Guinea pigs sensitized to ovalbumin (anaphylactic shock); experiment: Anaphylaxis in guinea pigs: protection against death after ovalbumin challenge (survival); type: in vivo, guinea pig; details: Cavia porcellus, read-out: Anaphylaxis in guinea pigs oral effective dose in mg/kg: Survival
Summary of the method: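 Guinea pigs (400–500 g) sensitized by subplantar ovalbumin antiserum, dosed orally 24 h later. ED50 is the oral dose protecting 50% of animals from death.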

[2] = tested on: Guinea-pig ileum strips, histamine-induced contraction; experiment: Anti-histamine activity in "vitro": histamine-induced spasms of guinea-pig ileum strips; type: cell-based; details: Cavia porcellus, 5 min
Method: The histamine--(0.5 mg/liter) induced spasms are recorded Kymographically with an isotonic lever giving a 5-fold magnification.

[3] = tested on: histamine paw oedema in guinea pigs; experiment: Histamine paw oedema in guinea pigs; type: in vivo, guinea pig; details: Cavia porcellus, read-out: Anaphylaxis in guinea pigs oral effective dose in mg/kg: Histamine oedema
Summary of the method: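 Guinea pigs of 400–500 g were dosed orally with compound or saline 24 h after subplantar ovalbumin antiserum sensitisation in the left hind paw. Two hours after dosing, histamine 50 μg was injected subplantar into the right hind paw to induce oedema.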

[4] = Table I-a, estimated ED50, oral, protection against death after i.v. 0.6 mg ovalbumin
[5] = Table I-a, histamine 0.5 mg/liter, 5 minutes incubation, concentration giving significant inhibition (50%) of the contraction, read-out: Histamine in "vitro" (ileum) effective conc.
[6] = Table I-a, oral dose giving paw reaction below 10 units 10 minutes after 50 μg histamine s.p., 2 hours after dosing
[7] = Table I-b, estimated ED50, oral, protection against death after i.v. 0.6 mg ovalbumin
[8] = Table I-b, histamine 0.5 mg/liter, 5 minutes incubation, concentration giving significant inhibition (50%) of the contraction, read-out: Histamine in "vitro" (ileum) effective conc.
[9] = Table I-b, oral dose giving paw reaction below 10 units 10 minutes after 50 μg histamine s.p., 2 hours after dosing

Compound	ED50 [1, 4]	IC50 [2, 5]	minimal effective dose [3, 6]	further results
O=c1[nH]c2ccccc2n1CCCN1CCN(C(c2ccccc2)c2ccccc2F)CC1 (stereo not drawn) [1-[3-{4-[(2-fluorophenyl)phenylmethyl]-1-piperazinyl}propyl]-1,3-dihydro-2H-benzimidazol-2-one]	< 2.5 mg/kg	0.02 mg/L (≈ 0.045 µM)	< 2.5 mg/kg	–
Fc1ccc(C(c2ccc(F)cc2)N2CCN(CCCCn3cnc4ccccc43)CC2)cc1 [I-b: M=H, R1=H, (CH2)4, R6=4-F, R7=4-F, 1-[4-{4-[bis(4-fluorophenyl)methyl]-1-piperazinyl}butyl]-1H-benzimidazole]	–	–	–	ED50 [1, 7]: 0.31 mg/kg; IC50 [2, 8]: 0.005 mg/L (≈ 0.0109 µM); minimal effective dose [3, 9]: 0.31 mg/kg
O=c1[nH]c2ccccc2n1CCCCCN1CCN(C(c2ccc(F)cc2)c2ccc(F)cc2)CC1 [1-[5-{4-[bis(4-fluorophenyl)-methyl]-1-piperazinyl}pentyl]-1,3-dihydro-2H-benzimidazol-2-one dihydrochloride.hydrate]	1.25 mg/kg	0.01 mg/L	2.5 mg/kg	–
Cc1ccc2[nH]c(=O)n(CCCN3CCN(C(c4ccccc4)c4ccccc4)CC3)c2c1 [1-{3-[4-(diphenylmethyl)-1-piperazinyl]propyl}-1,3-dihydro-6-methyl-2H-benzimidazol-2-one]	0.16 mg/kg	0.01 mg/L (≈ 0.0227 µM)	0.31 mg/kg	–
O=c1[nH]c2ccc(Cl)cc2n1CCCN1CCN(C(c2ccccc2)c2ccccc2)CC1 [6-chloro-1-{3-[4-(diphenylmethyl)-1-piperazinyl]propyl}-1,3-dihydro-2H-benzimidazol-2-one]	0.63 mg/kg	0.04 mg/L (≈ 0.0868 µM)	0.63 mg/kg	–
O.O=c1[nH]c2ccc(Cl)cc2n1CCCN1CCN(C(c2ccc(F)cc2)c2ccc(F)cc2)CC1 [1-[3-{4-[bis(4-fluorophenyl)methyl]-1-piperazinyl}propyl]-6-chloro-1,3-dihydro-2H-benzimidazol-2-one hydrate]	0.63 mg/kg	0.02 mg/L	1.25 mg/kg	–
O=c1[nH]c2ccccc2n1CCCN1CCN(C(c2ccc(Cl)cc2)c2cccnc2)CC1 (stereo not drawn) [I-e: Ar1=4-Cl-C6H4, Ar2=3-pyridinyl, 1-[3-{4-[(4-chlorophenyl)(3-pyridinyl)methyl]-1-piperazinyl}propyl]-1,3-dihydro-2H-benzimidazol-2-one]	–	–	–	ED50 ([1]; Table I-e, estimated ED50, oral, protection against death after i.v. 0.6 mg ovalbumin): 1.25 mg/kg; IC50 ([2]; Table I-e, histamine 0.5 mg/liter, 5 minutes incubation, concentration giving significant inhibition (50%) of the contraction, read-out: Histamine in "vitro" (ileum) effective dose): 0.08 mg/L (≈ 0.173 µM); minimal effective dose ([3]; Table I-e, oral dose giving paw reaction below 10 units 10 minutes after 50 μg histamine s.p., 2 hours after dosing): 2.5 mg/kg
O=c1[nH]c2ccccc2n1CCCN1CCN(C(c2ccc(F)cc2)c2ccc(F)cc2)CC1 [1-[3-{4-[bis(4-fluorophenyl)methyl]-1-piperazinyl}propyl]-1,3-dihydro-2H-benzimidazol-2-one]	0.31 mg/kg	0.01 mg/L (≈ 0.0216 µM)	0.16 mg/kg	–
O=c1[nH]c2ccccc2n1CCCCCN1CCN(C(c2ccccc2)c2ccccc2)CC1 [I-a: L=H, R1=H, R2=H, (CH2)5, R6=H, R7=H, 1-{5-[4-(diphenylmethyl)-1-piperazinyl]pentyl-1,3-dihydro-2H-benzimidazol-2-one dihydrochloride.hydrate]	0.63 mg/kg	0.01 mg/L	2.5 mg/kg	–
Cc1ccc(C(c2ccc(F)cc2)N2CCN(CCCn3c(=O)[nH]c4ccccc43)CC2)cc1 (stereo not drawn) [1-[3-{4-[(4-fluorophenyl)-(4-methylphenyl)methyl]-1-piperazinyl}propyl]-1,3-dihydro-2H-benzimidazol-2-one]	< 2.5 mg/kg	0.16 mg/L (≈ 0.349 µM)	< 2.5 mg/kg	–
Fc1ccc(C(c2ccc(F)cc2)N2CCN(CCCn3cnc4ccccc43)CC2)cc1.O [I-b: M=H, R1=H, (CH2)3, R6=4-F, R7=4-F, 1-[3-{4-[bis(4-fluorophenyl)methyl]-1-piperazinyl}propyl]-1H-benzimidazole hydrate]	–	–	–	ED50 [1, 7]: 0.16 mg/kg; IC50 [2, 8]: 0.02 mg/L; minimal effective dose [3, 9]: 0.31 mg/kg
Sc1nc2ccccc2n1CCCN1CCN(C(c2ccccc2)c2ccccc2)CC1 [I-b: M=HS, R1=H, (CH2)3, R6=H, R7=H, 1-{3-[4-(diphenylmethyl)-1-piperazinyl]propyl}-1H-benzimidazole-2-thiol]	–	–	–	ED50 [1, 7]: 0.63 mg/kg; IC50 [2, 8]: 0.01 mg/L (≈ 0.0226 µM); minimal effective dose [3, 9]: 1.25 mg/kg
COC(=O)Nc1nc2ccccc2n1CCCN1CCN(C(c2ccccc2)c2ccccc2)CC1 [methyl [1-{3-[4-(diphenylmethyl)-1-piperazinyl]propyl}-1H-benzimidazol-2-yl]carbamate]	–	–	–	ED50 [1, 7]: 2.5 mg/kg; IC50 [2, 8]: ≤ 0.16 mg/L; minimal effective dose [3, 9]: 2.5 mg/kg
Cl.Cl.O=c1oc2ccccc2n1CCCN1CCN(C(c2ccccc2)c2ccccc2)CC1 [I-c: Y=O, 3-{3-[4-(diphenylmethyl)-1-piperazinyl]propyl}-2(3H)benzoxazolone dihydrochloride]	–	–	–	ED50 ([1]; po): 0.63 mg/kg; IC50 ([2]; read-out: Histamine in "vitro" (ileum) effective conc. in mg/l): 0.01 mg/L; minimal effective dose ([3]; po, 2 h): 2.5 mg/kg
O=c1[nH]c2cc(Cl)c(Cl)cc2n1CCCN1CCN(C(c2ccccc2)c2ccccc2)CC1 [5,6-dichloro-1-{3-[4-(diphenylmethyl)-1-piperazinyl]propyl}-1,3-dihydro-2H-benzimidazol-2one]	2.5 mg/kg	≥ 0.16 mg/L	2.5 mg/kg	–
O=c1n(CO)c2ccccc2n1CCCN1CCN(C(c2ccccc2)c2ccccc2)CC1 [1-{3-[4-(diphenylmethyl)-1-piperazinyl]propyl}-1,3-dihydro-3-(hydroxymethyl)-2H-benzimidazol-2-one]	0.31 mg/kg	0.01 mg/L (≈ 0.0219 µM)	0.31 mg/kg	–
CC(=O)n1c(=O)n(CCCN2CCN(C(c3ccccc3)c3ccccc3)CC2)c2ccccc21 [1-acetyl-3-{3-[4-(diphenylmethyl)-1-piperazinyl]propyl}-1,3-dihydro-2H-benzimidazol-2-one]	0.1 mg/kg	0.005 mg/L (≈ 0.0107 µM)	0.31 mg/kg	–

— patent US4250176A, “Piperazine derivatives” (priority 1979, dated 1981)
